Assay results: ChEMBL document CHEMBL1151598, “Synthesis of in vivo potent antimalarial 1,2,4-trioxanes” (Bioorg Med Chem Lett, 1992)
Calls of active or inactive are those of the source. The calls are words filed in the database; no cut-off is given here.

Key:
[1] = tested on: Mus musculus; assay: Compound was tested for in vivo antimalarial activity against Plasmodium berghei in male mice (Mus musculus) at dose of 90 mg/kg (intraperitoneal); A - Active; assay type: functional, organism-based; parameters: dose 90 mg/kg
[2] = tested on: Mus musculus; assay: Compound was tested for in vivo antimalarial activity against Plasmodium berghei in male mice (Mus musculus) at dose of 30 mg/kg (ip); A - Active; assay type: functional, organism-based; parameters: dose 30 mg/kg

Row | SMILES | Activity [1] | Activity [2]
1 | C=C(c1ccc(OC)cc1)C1COC2(OO1)C1CC3CC(C1)CC2C3 (stereo not drawn) | Active | Active
2 | C=C(c1ccc(F)cc1)C1COC2(OO1)C1CC3CC(C1)CC2C3 (stereo not drawn) | Active | 
3 | C=C(c1ccccc1)C1COC2(OO1)C1CC3CC(C1)CC2C3 (stereo not drawn) | Active | 
4 | C=C(c1ccc(C)cc1)C1COC2(OO1)C1CC3CC(C1)CC2C3 (stereo not drawn) | Active | 
5 | C=C(c1ccc(Cl)cc1)C1COC2(OO1)C1CC3CC(C1)CC2C3 (stereo not drawn) | Active | Active
6 | C=C(c1ccc(C)cc1C)C1COC2(OO1)C1CC3CC(C1)CC2C3 (stereo not drawn) | Active | 
